Source: patent publication US8202834B2, “Fat regulation” (FibroGen, Inc., priority 2002, dated 2012)

Tests used:
leptin = test: Leptin secretion by preadipocytes in differentiation media; format: cell-based, human; details: 25 or 50 μM, up to 12 days, vs vehicle, FIG. 1B
Procedure: In a separate experiment, preadipocytes were plated in 24 well plates at 45,000 cells per well and cultured for 3 days in preadipocyte media (Zen-Bio). The media was then changed to differentiation media (Zen-Bio) and cells were treated with either vehicle control (0.5% DMSO) or compound B at 25 or 50 μM for up to 12 days. Half of the culture media was exchanged every 3 days and cell-free culture supernatants were generated and analyzed for levels of leptin secretion using a QUANTIKINE immunoassay (R&D Systems) according to the manufacturer's instructions.

DEC1/Stra13 [1] = test: DEC1/Stra13 expression time course in liver after oral gavage; format: in vivo; details: mouse liver, 100 mg/kg oral gavage, 4-72 h; FIG. 3A
Procedure: (§1) The ability of the present compounds and methods to regulate fat metabolism, in particular, to increase expression of factors involved in fat transport, utilization, and storage, was analyzed as follows. To determine gene induction patterns over time, twenty four Swiss Webster male mice (30-32 g) were obtained from Simonsen, Inc. and treated by oral gavage with a 4 ml/kg volume of either 0.5% carboxymethyl cellulose (CMC; Sigma-Aldrich, St. Louis Mo.) (0 mg/kg) or […] compound B (25 mg/ml in 0.5% CMC) (100 mg/kg). At 4, 8, 16, 24, 48, or 72 hours after the final dose, animals were anesthetized with isoflurane. The mice were then sacrificed and tissue samples of kidney, liver, brain, lung, and heart were isolated and stored in RNALATER solution (Ambion) at −80° C.
To further investigate the effect of the methods and compounds of the present invention on expression of genes associated with fat metabolism and adipogenesis, the experiments performed as described in Example 3 above were analyzed for specific adipogenic factors. […] DEC1/Stra13 is known to repress expression of PPAR-γ2 nuclear hormone receptor, which is necessary for adipocyte differentiation. […]

DEC1/Stra13 [2] = test: DEC1/Stra13 expression in tissues after 4 days of oral dosing; format: in vivo, mouse; details: oral gavage once per day for 4 days, FIG. 3B
Procedure: (§2) To further investigate the effect of the methods and compounds of the present invention on expression of adipogenic factors, twelve Swiss Webster male mice (30-32 g) obtained from Simonsen, Inc. were treated by oral gavage once per day for 4 days with 4 ml/kg volume of either 0.5% CMC (0 mg/kg/day), 25 mg/ml compound D in 0.5% CMC (100 mg/kg/day), or 7.5 mg/ml and 25 mg/ml of compound B in 0.5% CMC (30 and 100 mg/kg/day, respectively). Four hours after the final dose, animals were anesthetized, sacrificed, and approximately 150 mg of adipose, heart, kidney, liver, lung, and muscle were isolated and stored in RNALATER solution (Ambion) at −20° C. RNA isolation and gene expression analysis was performed as described in Example 3 above.

PPAR-γ = PPAR-γ expression in tissue after 4 days of oral dosing; format: in vivo, mouse; details: cardiac tissue; oral gavage once per day for 4 days; FIG. 3C
Procedure: as §2

HIF-1α = HIF-1α in nuclear fractions, TRANSAM HIF-1 ELISA; format: cell-based, human; details: 293A and Hep3B cells, vs vehicle; FIG. 8B
Source text: Compounds of the present invention for use in the present methods stabilize HIFα, inhibit HIF hydroxylase activity and/or HIFα hydroxylation, etc. Thus, compounds can be identified, e.g., by their ability to stabilize HIFα. Stabilization of HIFα using compounds and methods of the present invention was examined as follows. Human cells derived from adenovirus-transformed fetal kidney epithelium (293A), cervical epithelial adenocarcinoma (HeLa), hepatocellular carcinoma (Hep3B), squamous carcinoma (SSC-25), and lung fibroblast (HLF) tissues (see, e.g., American Type Culture Collection, Manassas Va.; and Qbiogene, Carlsbad Calif.) were separately seeded into 100 mm culture dishes and grown at 37° C., 20% O2, 5% CO2 in media as follows: HeLa cells in Dulbecco's Modification of Eagle's Medium (DMEM), 2% fetal bovine serum (FBS); HLF cells in DMEM, 10% FBS; 293A cells in DMEM, 5% FBS; and Hep3B cells in Minimal Essential Medium (MEM), Earle's BSS (Mediatech Inc., Herndon Va.), 2 mM L-glutamine, 0.1 mM non-essential amino acids, 1 mM sodium pyruvate, 10% FBS. When cell layers reached confluence, the media was replaced with OPTI-MEM media (Invitrogen Life Technologies, Carlsbad Calif.) and cell layers were incubated for approximately 24 hours in 20% O2, 5% CO2 at 37° C. A compound of the invention (compound B, D, F, G, or H) or vehicle control (0.5 to 1% DMSO) was then added to existing medium, and incubation was continued overnight.
Alternatively, nuclear fractions were prepared using a nuclear extract kit (Active Motif, Carlsbad Calif.) and were analyzed for HIF-1α using a TRANSAM HIF-1 ELISA kit (Active Motif) according to the manufacturer's instructions.

aldolase = test: Aldolase expression in 293A cells, Western blot; format: cell-based, human
Procedure: In a further analysis of the methods and compounds effect on glucose regulation, human 293A cells were plated confluent in 35 mm culture dishes and cultured for 1 day at 37° C., 10% CO2 in DMEM containing 5% FBS and 1% penicillin-streptomycin. The media was changed to OPTI-MEM media (Invitrogen Life Technologies) and incubation was continued for an additional 18 to 24 hours. Vehicle control or compound B was then added to the media and cells were incubated for an additional 24, 48 or 72 hours. Plates were placed on ice, culture supernatant was removed, and lysis buffer-1 (LB-1: 10 mM Tris pH 7.4, 1 mM EDTA, 150 mM sodium chloride, 0.5% IGEPAL) was added. Cell lysates were harvested, cytosolic fractions were collected, and cytosolic proteins were separated using SDS-PAGE as described above. After separation, the proteins were transferred to a PVDF membrane at 400 mA for 1.5 hours at 4° C. The membrane was incubated in blocking buffer for 2 hours or overnight and washed once with T-TBS prior to addition of anti-aldolase antibody diluted to working concentration in blocking buffer. After overnight incubation with gentle agitation at 4° C., membranes were washed 4 times with T-TBS, followed by incubation for one hour at room temperature with conjugated secondary antibody diluted in blocking buffer. […]

[3] = system: PFK-P, PFK-L, enolase-1, GluT-1, lactate dehydrogenase-1, aldolase-1, hexokinase-1; test: Expression of glucose regulation genes in kidney, liver and lung after oral gavage; format: in vivo; details: mouse kidney, liver, lung; 100 mg/kg oral gavage; FIGS. 10A-10C
Procedure: as §1
In the time course, most mRNA levels peaked early following administration of compound, then returned to control levels after 24 to 48 hours. […] These differences relate, in part, to the different degree to which glycolytic activity provides a critical source of energy for the respective tissue, especially during times of stress.

Structure (SMILES): O=C(O)CNC(=O)c1nc(Cl)c2ccccc2c1O [compound B, [(1-Chloro-4-hydroxy-isoquinoline-3-carbonyl)-amino]-acetic acid]
- leptin secretion (leptin): dose-dependent increase in leptin secretion
- expression of DEC1/Stra13 (DEC1/Stra13 [1]): initially increased
- DEC1/Stra13 expression (DEC1/Stra13 [2]; adipose, kidney, liver and muscle, 4 h after final dose): increased DEC1/Stra13 expression
- DEC1/Stra13 expression (DEC1/Stra13 [2]; lung and heart): increased DEC1/Stra13 expression
- PPAR-γ expression (PPAR-γ): decreased PPAR-γ expression
- stabilization and accumulation of HIFα (HIF-1α): stabilization and accumulation of HIFα
- aldolase expression (aldolase; 293A cells, 24, 48 and 72 hours, FIG. 9B): increased over time
- β-tubulin expression (aldolase; 293A cells, specificity control): no increases
- expression of genes encoding enzymes involved in glucose regulation [3]: increased in a coordinated fashion
